According to PMC10606064, “2-Aminothiazole-Flavonoid Hybrid Derivatives Binding to Tau Protein and Responsible for Antitumor Activity in Glioblastoma” (International Journal of Molecular Sciences, 2023):

Columns and labels:
[1] = test system: U87 shTau cells; test: Cell cycle by flow cytometry (propidium iodide), U87 shTau; type: cell-based, human; conditions: 48 h
Method: Measurements of cell cycle from DNA content were performed by flow cytometry as described before. Briefly, 4.10^5 cells in exponential growth were seeded in 6-well plates. After 24 h, they were treated with 10 µM of compounds for 48 h. Nocodazole was used as a positive control with a concentration of 1 µM. The trypsinized cells were harvested and then centrifuged (1200 rpm, 5 min, at room temperature). The cell pellet was resuspended in 1 mL of PBS 1× at 4 °C, and then an extra 4 mL of cold PBS was added to wash the pellet. Cells were then centrifuged again (1200 rpm, 5 min, at 4 °C). To fixate the cells, the pellet was resuspended in 100 µL of cold 70% ethanol, then an additional 900 µL was added and cells were incubated for 30 min at −20 °C. After that, 9 mL of cold PBS was added, and cells were centrifuged (2000 rpm, 5 min, at 4 °C) to remove ethanol. The cell pellet was then resuspended in the staining mix containing 50 µg.mL^−1 of propidium iodide (Molecular Probes, Paris, France) and 100 µg.mL^−1 of RNAse A (Sigma-Aldrich, Saint-Quentin-Fallavier, France) in PBS for 20 min at room temperature in darkness. Samples were analyzed on a Beckman–Coulter–Gallios flow cytometer using the Kaluza for Gallios Acquisition v1.0 software. Propidium iodide was excited at 488 nm, and fluorescence was analyzed at 620 nm on channel FL-3. For the analysis, there is considerable overlap between early S phase and G1 and between late S phase and G2/M due to broadening of the distribution caused by variability in the staining of the cells and instrumental variability. Therefore, the percentages of cells in the sub-G1, G1, S, and G2/M phases of the cell cycle were calculated using the Watson et al. algorithm for cell cycle analysis in Kaluza for Gallios Analysis v2.1 software. The software automatically adjusted gates based on PI median fluorescence intensity of the cells and their frequency among total cells. The number of cells in each phase was divided by the total number of analyzed cells, and the values were reported as percentage of the total cells for each cell cycle phase.

[2] = test system: U87 shCTRL cells; test: Mitochondria network analysis (citrate synthase immunofluorescence), U87 shCTRL; type: cell-based, human; conditions: 5 µM, 24 h (Figure 4 legend: 48 h)
Method: For indirect immunofluorescence of mitochondria, 10^4 cells were plated on cover glass and incubated for 24 h with compounds. Cells were then fixed in 4% formaldehyde (in PBS pH 7.4) for 20 min at RT, permeabilized with PBS-Triton X-100 0.5% for 10 min at RT. Immunostaining was carried out overnight at 4 °C with a primary anti-citrate synthase antibody (dilution 1:400 in PBS-BSA 3%; SC390693; SantaCruz Biotechnologies, Heidelberg, Germany). The following day, the cells were washed then incubated with anti-mouse secondary antibody (dilution 1:800 in PBS-BSA 3%; A-11029; Invitrogen) and TRITC-phalloidin (dilution 1:2500 in PBS-BSA 3%; P1951; Sigma-Aldrich, Saint-Quentin-Fallavier, France) for 1 h at RT in the dark. For the microtubule network, the same protocol for mitochondria labeling was carried out by replacing with primary anti-α-tubulin antibody (dilution 1:400 in PBS-BSA 1% from a 1 mg/mL solution; monoclonal antibody, clone DM1A, Sigma-Aldrich, Saint-Quentin-Fallavier, France). Next, cells were washed in PBS and cover glasses were mounted with a drop of ProLong® anti-fade solution (Invitrogen). Mitochondria and cytoskeletons were imaged using a confocal laser scanning microscope (CLSM) Leica SP5 with a Leica inverted microscope, equipped with a Plan-Apochromat 63×oil immersion objective (NA = 1.4). Each image was recorded with the CLSM’s spectral mode selecting specific domains of the emission spectrum. The Alexafluor488 and FITC fluorophores were excited at 488 nm with an argon laser, and fluorescence emission was collected between 496 nm and 535 nm. The TRITC fluorophore was excited at 543 nm with a helium–neon laser, and fluorescence was collected between 560 and 620 nm. The public-domain Fiji v1.54f software was used for image analysis.
The analyses of mitochondria and microtubule networks were performed using, respectively, the ‘Mitochondria analyzer’ plugin for Fiji v1.54f software and the method described in our earlier work. Briefly, a series of images were transferred to the software and corrected for background fluorescence intensity contribution. Next, the surface of 50 single cells was measured by considering the cell shape as the boundary of labelling of actin or α-tubulin cytoskeletons (respectively for measurement on mitochondria or microtubules). Then, the mitochondria elongation and mean branch junction per mitochondria parameters, and the surface of the microtubule network, were measured by performing systematically the Otsu method to reduce all gray-level images to binary images. […] Moreover, the ratios of microtubules on cell surfaces were calculated as percentages.

Compound	effect on cell cycle progression ([1]; 10 µM)	change in elongation index of mitochondria [2]	reduction in the number of branch junctions per mitochondria [2]	%G1 (cells in G1 phase) ([1]; compounds 10 µM, NOC 1 µM) [%]	%G2/M (cells in G2/M phase) ([1]; compounds 10 µM, NOC 1 µM) [%]
Nc1nc2ccc3oc(-c4cccc(Oc5ccccc5)c4)cc(=O)c3c2s1 [Compound 2, 2-amino-7-(3-phenoxyphenyl)-9H-chromeno [6,5-d]thiazol-9-one]	no significant effect on cell cycle progression	−12.5%	1.8 fold		
Nc1nc2ccc3oc(C(=O)O)cc(=O)c3c2s1 [Compound 5]		No effect	No effect	62 ± 5	25 ± 1
